# Laboratory results taken from paper PMC6370799, “Flavones hydroxylated at 5, 7, 3′ and 4′ ameliorate skin fibrosis via inhibiting activin receptor-like kinase 5 kinase activity” (Cell Death & Disease, 2019).
# Biological target: T1, activin receptor-like kinase 5 (ALK5) (Homo sapiens, UniProt P36897)
# T1 construct: gene TGFBR1; GST-ALK5
# T1 sequence (P36897 34-503): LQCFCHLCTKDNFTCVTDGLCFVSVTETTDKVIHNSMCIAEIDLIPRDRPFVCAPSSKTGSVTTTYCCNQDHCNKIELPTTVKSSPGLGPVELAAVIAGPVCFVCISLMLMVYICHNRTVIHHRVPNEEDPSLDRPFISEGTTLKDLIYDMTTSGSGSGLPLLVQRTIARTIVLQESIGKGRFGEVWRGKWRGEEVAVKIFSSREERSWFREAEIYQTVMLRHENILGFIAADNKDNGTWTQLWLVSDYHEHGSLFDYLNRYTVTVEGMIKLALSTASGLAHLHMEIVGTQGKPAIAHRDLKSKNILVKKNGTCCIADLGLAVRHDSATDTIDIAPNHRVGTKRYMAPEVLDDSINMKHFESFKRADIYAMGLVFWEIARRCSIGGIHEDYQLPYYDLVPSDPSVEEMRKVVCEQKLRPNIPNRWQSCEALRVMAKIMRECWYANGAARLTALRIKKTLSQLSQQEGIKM
# Assay: LanthaScreen Eu kinase binding assay (TR-FRET tracer displacement); also in vitro GST-Smad3 phosphorylation assay
row,Compound,IC50 [nM]
1,O=c1c(O)c(-c2cc(O)c(O)c(O)c2)oc2cc(O)cc(O)c12 [myricetin],4080
2,O=c1c(O)c(-c2ccc(O)c(O)c2)oc2cc(O)cc(O)c12 [quercetin],1480
3,O=c1cc(-c2ccc(O)c(O)c2)oc2cc(O)cc(O)c12 [luteolin],1060
